For assay [1], the system named is HCC1954. The assay is described as follows: Alamar blue cell proliferation assay, HCC1954. The class given is cell-based, human. To be noted: HCC1954, 72 h; read-out: IC50 Assay B (Alamar blue cell proliferation). On the procedure:
(§1) The effects of RgA on cell growth, survival, and cell death was then determined. […] Treatment with 5 μM of RgA caused an increase in G1 phase by approximately 23% in comparison to control and approximately 7% and 17% decreases in cells in S and G2/M phases, respectively. The induction in G1 phase cell cycle arrest by RgA is dose-dependent (FIG. 5A, FIG. 16). […] Jones and Thompson, Genes Dev. 2009, 23, 537-548. […] The IC50 values of RgA against several human cancer cell lines also was determined using the alamar blue cell proliferation assay.
(§2) Cells were seeded into a 96-well plate (Costar) in 180 μL culture media. After an overnight recovery, drugs were added and incubated for 72 h. After drug incubation, cells were added with 20 μL of alamar blue reagent and the plates were incubated at 37° C. for 6 h before reading the fluorescence (544 nm Ex/590 nm Em) with a plate reader. GraphPad Prism (v4.03) software was used to determine IC50 values using a four parameter logistic regression.
For orientation: The colour change of resazurin is a common sign of viable cells or microbes.

The subject of assay [2] is DLD1 GLUT1 KO. Briefly: [3H]-2DG uptake in DLD1 GLUT1 knockout cells. In kind it is cell-based. On the procedure:
(§3) The inhibitory activity of compounds on glucose transport was analyzed by measuring the cell uptake of [3H]-2DG as previously described. Ulanovskaya et al., Chem. Biol. 2011, 18, 222-230. Briefly, cells were washed twice and incubated in low-glucose medium for 10 min. Cells were added drugs and incubated for another 10 min before adding [3H]-2DG. After 10 min incubation with [3H]-2DG, cells were washed twice and lysed with 0.2 N NaOH plus 0.2% SDS. The cell lysate was transferred to a new tube containing 1 mL of optiphase supermix. Glucose uptake was quantified with a scintillation counter.

Assay [3] relates to HeLa. The assay is described as follows: Alamar blue cell proliferation assay, HeLa. The class given is cell-based, human. The following applies: 72 h, read-out: IC50 Assay B (Alamar blue cell proliferation). On the procedure:
as §1, §2

In assay [4] the test system is Jurkat T. The assay is described as follows: Alamar blue cell proliferation assay, Jurkat T. The class given is cell-based, human. The following applies: 72 h, read-out: IC50 Assay B (Alamar blue cell proliferation). The method, then: as §1, §2
For assay [5], the system named is p53 and p21. The assay is described as follows: Western blot of p53 and p21 in MCF-7 cells. The class given is cell-based, human. The following applies: MCF-7, 24-h treatment, dose-dependent. On the procedure:
as §1
For western blot analysis, cells were harvested and lysed by RIPA buffer plus protease inhibitor. Cell lysates or samples from pull-down experiment were subjected to SDS/PAGE and then transferred to a nitrocellulose membrane. Membranes were first blocked in 5% (wt/vol) BSA in Tris-buffered saline plus 0.1% Tween 20 (TBST) at room temperature for 30 min and incubated with primary antibodies at 4° C. for overnight. Membranes were then washed three times with TBST and incubated with secondary antibodies at room temperature for another 1 h. Membranes were washed with TBST three times again and incubated with ECL substrate for 1 min at room temperature. Pictures were captured using a GeneSys Image Station.
In general terms: A western blot detects proteins with antibodies after separation by electrophoresis.

Assay [6] deals with FKBP25 (Homo sapiens, UniProt Q00688). The assay is described as follows: peptidyl prolyl cis-trans isomerase activity inhibition, FKBP25. In kind it is biochemical. To be noted: inhibition of prolyl isomerase activity.
Assay [7] deals with FKSP13 (Homo sapiens, UniProt P26885). Briefly: peptidyl prolyl cis-trans isomerase activity inhibition, FKSP13. The class given is biochemical. To be noted: inhibition of prolyl isomerase activity.
In assay [8] the target is T1, GLUT1 (Homo sapiens, UniProt P11166).
T1 construct: The full-length human SLC2A1, SLC2A3, and SLC2A4 genes were PCR amplified and inserted into pLenti6M vector 2; expressed in transfected cells
T1 sequence (P11166 1-492): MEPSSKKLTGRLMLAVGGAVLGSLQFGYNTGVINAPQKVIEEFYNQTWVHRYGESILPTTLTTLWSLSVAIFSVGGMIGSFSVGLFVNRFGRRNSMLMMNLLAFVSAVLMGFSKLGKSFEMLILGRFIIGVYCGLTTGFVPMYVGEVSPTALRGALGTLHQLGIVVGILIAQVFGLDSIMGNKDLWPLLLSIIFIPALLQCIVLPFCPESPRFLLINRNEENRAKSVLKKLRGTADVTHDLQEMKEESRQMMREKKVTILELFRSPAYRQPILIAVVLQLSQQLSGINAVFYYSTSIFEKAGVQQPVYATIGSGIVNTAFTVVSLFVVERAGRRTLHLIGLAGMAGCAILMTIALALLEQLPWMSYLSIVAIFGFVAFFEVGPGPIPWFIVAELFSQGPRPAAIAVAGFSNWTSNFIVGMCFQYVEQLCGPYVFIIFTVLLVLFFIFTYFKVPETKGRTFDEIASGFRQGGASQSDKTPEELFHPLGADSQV
The assay is described as follows: biotin-RgA pull-down and biotin probe competition binding assay, GLUT1. To be noted: competition with 100 nM biotin-RgA probe, HEK293T GLUT1 lysate, Western blot densitometry; read-out: estimated Kd for GLUT1. On the procedure:
Next, the binding affinity of RgA for GLUT1 was determined using a RgA biotin pull-down assay. A biotin-RgA conjugate was synthesized by tethering the biotin moiety through carbon:carbon double bond in the FKBP-binding domain of RgA (FIG. 13). […] Using the biotin-RgA conjugate, a pulldown experiment with cell lysate containing detergent-solubilized GLUT1 protein prepared from HEK293T cells overexpressing GLUT1 was performed, followed by Western blot analysis with a GLUT1-specific antibody.
The estimation of Kd value for RgA was determined with the biotin probe competition binding assay. […] After western blot, band intensities were quantified by densitometry analysis using Image J software. The assay was repeated three times. GraphPad Prism (v4.03) software was used to determine apparent Kd value for RgA using a nonlinear regression.

Assay [9] deals with FKBP51 (Homo sapiens, UniProt Q13451). Briefly: peptidyl prolyl cis-trans isomerase activity inhibition, FKBP51. The class given is biochemical. The following applies: inhibition of prolyl isomerase activity.
Assay [10] deals with MCF-7 cells. The assay is described as follows: LC/MS metabolite profiling of MCF-7 cells. In kind it is cell-based, human. On the procedure:
To understand the metabolic impact of GLUT inhibition by RgA, the steady-state levels of 272 metabolites was determined using LC/MS, Liu et al, Anal. Chem. 2014, 86, 2175-2184, in MCF-7 cells upon treatment with RgA for 30 min and 6 h, respectively.
MCF-7 Cells were seeded into 6-well plate at a density of 5×10^5 cells per well, allowed to recover overnight and subsequently treated with RgA or vehicle control for 30 min and 6 h, respectively. Metabolites were extracted and analyzed as previously described. Liu et al., Anal. Chem. 2014, 86, 2175-2184.

In assay [11] the test system is RKO. Briefly: [3H]-2DG uptake assay in RKO cells. The class given is cell-based, human. The method, then: (§4) Hay, Nat. Rev. […] To determine whether RgA could inhibit glucose uptake in cancer cell lines in addition to A549, the impact of RgA on [3H]-2DG uptake in six other cancer cell lines, including HCC1954, MCF-7, PANC10.05, Jurkat T, HeLa, and RKO was measured (FIG. 3A, Table 3).
as §3

Assay [12] deals with HCC1954. The assay is described as follows: [3H]-2DG uptake assay in HCC1954 cells. The class given is cell-based, human. The method, then:
as §4, §3

[13] abbreviates: MCF-7, 30 min and 6 h treatment.

The structures appear in SMILES notation. Bounds are passed on as bounds.

As a reminder, the EC50 is the concentration giving half of the maximal effect. Read a high EC50 as a need for much substance. By Ki is commonly meant a measure of affinity in units of concentration, obtained from inhibition or displacement. Read a high Ki as a looser hold on the target. Broadly, the Kd is a measure of binding affinity in units of concentration.

Chain of FKSP13 (P26885 22-142): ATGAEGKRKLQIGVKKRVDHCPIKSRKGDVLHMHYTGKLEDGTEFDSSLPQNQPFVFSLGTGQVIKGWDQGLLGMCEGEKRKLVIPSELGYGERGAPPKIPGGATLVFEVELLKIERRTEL
Chain of FKBP51 (Q13451 whole entry): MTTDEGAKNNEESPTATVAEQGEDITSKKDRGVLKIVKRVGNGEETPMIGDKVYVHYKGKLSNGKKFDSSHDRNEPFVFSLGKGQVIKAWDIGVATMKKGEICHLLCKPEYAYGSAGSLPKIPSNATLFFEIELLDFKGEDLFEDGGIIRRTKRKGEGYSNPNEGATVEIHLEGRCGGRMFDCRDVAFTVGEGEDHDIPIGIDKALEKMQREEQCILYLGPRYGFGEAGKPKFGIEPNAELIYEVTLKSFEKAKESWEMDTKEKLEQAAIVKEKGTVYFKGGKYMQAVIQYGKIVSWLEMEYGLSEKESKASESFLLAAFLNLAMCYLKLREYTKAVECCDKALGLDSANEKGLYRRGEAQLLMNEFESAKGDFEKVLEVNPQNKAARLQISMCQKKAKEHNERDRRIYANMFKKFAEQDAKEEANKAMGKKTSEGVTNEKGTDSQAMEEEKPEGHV
Chain of FKBP25 (Q00688 whole entry, species assumed): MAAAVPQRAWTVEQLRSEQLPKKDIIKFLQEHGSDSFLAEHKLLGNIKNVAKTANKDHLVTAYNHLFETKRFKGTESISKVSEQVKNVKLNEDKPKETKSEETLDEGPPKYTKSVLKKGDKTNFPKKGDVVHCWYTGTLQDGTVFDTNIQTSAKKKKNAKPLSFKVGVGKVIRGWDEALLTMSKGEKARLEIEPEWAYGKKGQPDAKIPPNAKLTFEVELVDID

On to `CCC(C)C1C(=O)NCC(=O)N(C)CCC=CC(=O)OCC(C)(C)C(=O)C(=O)N2CCCCC2C(=O)OC(CCc2ccc(OC)c(OC)c2)c2cccc(c2)NC(=O)CCC(=O)N(C)C(CC(C)C)C(=O)NC(Cc2ccccc2)C(=O)N1C` (stereo not drawn) [JW11-D2, Rapaglutin A], for which the IC50 amounted to 0.109 µM in [1]; 0.281 µM in assay [3]; 0.132 µM in assay [4]; 0.0108 µM in [11]; 0.0083 µM in assay [12]. For the same compound, the response in assay [2] (DLD1 GLUT1 knockout) was half-maximal at 0.0271 ± 0.0036 µM (EC50). Besides, in assay [2] (DLD-1 GLUT1 knock out versus wild type), the “inhibitory activity in GLUT1 knock out cells” value is on record as “retained its inhibitory activity”. The “p53 and p21 activation” value in assay [5] was “activation of both p53 and p21”. In addition, the Ki was greater than 5 µM in [6], 0.539 ± 0.207 µM in [7] and 0.046 ± 0.01 µM in [9]. For the same compound, in assay [8], the Kd is 0.078 µM. Also, in [10] (MCF-7), the “cellular ATP level and AMP/ATP ratio” value is listed as “increase in the AMP/ATP ratio”. In assay [10] (setting [13]), the “TCA cycle and redox status” value is recorded as “not significantly affected”. In assay [10] (setting [13]), the “upper glycolytic and pentose phosphate pathway intermediates (G6P, F1,6-BP, DHAP, 6PGA, R5P, E4P)” value was “significant decreases”.

(Values after patent US12649980B2, “Three-dimensional surface for protein and small molecule microarrays” (The Johns Hopkins University, priority 2019, dated 2026).)
